ChEMBL document CHEMBL5303573, “Mapping human microbiome drug metabolism by gut bacteria and their genes” (Nature, 2019)

Assays:
[1] = The drug is tested on Bacteroides coprophilus strain: DSM18228 for biotransformation. The drug concentrations were measured before and after a 12-h incubation by liquid-chromatography-coupled mass spectrometry (LC–MS); conditions: 2 µM
[2] = The drug is tested on Bacteroides fragilis strain: HMW610 for biotransformation. The drug concentrations were measured before and after a 12-h incubation by liquid-chromatography-coupled mass spectrometry (LC–MS); conditions: 2 µM
[3] = The drug is tested on Coprococcus comes strain: ATCC27758 for biotransformation. The drug concentrations were measured before and after a 12-h incubation by liquid-chromatography-coupled mass spectrometry (LC–MS); assay type: ADME; parameters: dose 2 uM, timepoint 0 vs 12 hours; conditions: 2 µM
[4] = bacteroides stercoris, 12 h, 2 µM
Description: The drug is tested on Bacteroides stercoris strain: ATCC43183 for biotransformation. The drug concentrations were measured before and after a 12-h incubation by liquid-chromatography-coupled mass spectrometry (LC–MS)

[5] = The drug is tested on Clostridium asparagiforme strain: DSM15981 for biotransformation. The drug concentrations were measured before and after a 12-h incubation by liquid-chromatography-coupled mass spectrometry (LC–MS); assay type: ADME; parameters: dose 2 uM, timepoint 0 vs 12 hours; conditions: enterocloster asparagiformis, 2 µM
[6] = The drug is tested on Dorea formicigenerans strain: ATCC27755 for biotransformation. The drug concentrations were measured before and after a 12-h incubation by liquid-chromatography-coupled mass spectrometry (LC–MS); conditions: 2 µM
[7] = bacteroides thetaiotaomicron, 12 h, 2 µM
Description: The drug is tested on Bacteroides thetaiotaomicron strain: 7330 for biotransformation. The drug concentrations were measured before and after a 12-h incubation by liquid-chromatography-coupled mass spectrometry (LC–MS)

[8] = The drug is tested on Bacteroides finegoldii strain: DSM17565 for biotransformation. The drug concentrations were measured before and after a 12-h incubation by liquid-chromatography-coupled mass spectrometry (LC–MS); conditions: 2 µM
[9] = akkermansia muciniphila, 12 h, 2 µM
Description: The drug is tested on Akkermansia muciniphila strain: ATCC BAA-835 for biotransformation. The drug concentrations were measured before and after a 12-h incubation by liquid-chromatography-coupled mass spectrometry (LC–MS)

[10] = roseburia intestinalis, 12 h, 2 µM
Description: The drug is tested on Roseburia intestinalis strain: L1-82 for biotransformation. The drug concentrations were measured before and after a 12-h incubation by liquid-chromatography-coupled mass spectrometry (LC–MS)

[11] = The drug is tested on Collinsella intestinalis strain: DSM13280 for biotransformation. The drug concentrations were measured before and after a 12-h incubation by liquid-chromatography-coupled mass spectrometry (LC–MS); conditions: 2 µM
[12] = segatella copri, 12 h, 2 µM
Description: The drug is tested on Prevotella copri strain: DSM18205 for biotransformation. The drug concentrations were measured before and after a 12-h incubation by liquid-chromatography-coupled mass spectrometry (LC–MS)

[13] = The drug is tested on Ruminococcus gnavus strain: ATCC29149 for biotransformation. The drug concentrations were measured before and after a 12-h incubation by liquid-chromatography-coupled mass spectrometry (LC–MS); conditions: mediterraneibacter gnavus, 2 µM
[14] = The drug is tested on Eubacterium ventriosum strain: ATCC27560 for biotransformation. The drug concentrations were measured before and after a 12-h incubation by liquid-chromatography-coupled mass spectrometry (LC–MS); assay type: ADME; parameters: dose 2 uM, timepoint 0 vs 12 hours; conditions: 2 µM
[15] = The drug is tested on Anaerococcus hydrogenalis strain: DSM7454 for biotransformation. The drug concentrations were measured before and after a 12-h incubation by liquid-chromatography-coupled mass spectrometry (LC–MS); conditions: 2 µM
[16] = The drug is tested on Blautia luti strain: DSM14534 for biotransformation. The drug concentrations were measured before and after a 12-h incubation by liquid-chromatography-coupled mass spectrometry (LC–MS); assay type: ADME; parameters: dose 2 uM, timepoint 0 vs 12 hours; conditions: 2 µM
[17] = limosilactobacillus reuteri cf48-3a, 12 h, 2 µM
Description: The drug is tested on Lactobacillus reuteri CF48-3A strain: BEI HM-102 for biotransformation. The drug concentrations were measured before and after a 12-h incubation by liquid-chromatography-coupled mass spectrometry (LC–MS)

[18] = bacteroides intestinalis, 12 h, 2 µM
Description: The drug is tested on Bacteroides intestinalis strain: DSM17393 for biotransformation. The drug concentrations were measured before and after a 12-h incubation by liquid-chromatography-coupled mass spectrometry (LC–MS)

[19] = The drug is tested on Clostridium sporogenes strain: ATCC15579 for biotransformation. The drug concentrations were measured before and after a 12-h incubation by liquid-chromatography-coupled mass spectrometry (LC–MS); conditions: 2 µM

Measured: Bacterial Biotransformation

NC12CC3CC(CC(C3)C1)C2 [AMANTADINE]
Compound metabolized: [7]
not listed: [18] | [19]
Compound NOT metabolized: all other assays above

CCC1(c2ccc(N)cc2)CCC(=O)NC1=O (stereo unspecified) [AMINOGLUTETHIMIDE]
not listed: [19]
Compound NOT metabolized: all other assays above

CC(C)NCC(O)COc1ccc(CC(N)=O)cc1 (stereo unspecified) [ATENOLOL]
not listed: [1] | [2] | [4] | [7]
Compound NOT metabolized: all other assays above

CN(C)CCOC(c1ccc(Cl)cc1)c1ccccn1.O=C(O)/C=C\C(=O)O (stereo unspecified) [CARBINOXAMINE MALEATE]
not listed: [2] | [17]
Compound NOT metabolized: all other assays above

CCOC(=O)[C@H](CCc1ccccc1)N[C@@H](C)C(=O)N1[C@H](C(=O)O)C[C@H]2CCCC[C@@H]21 [TRANDOLAPRIL]
Compound metabolized: [19] | [12] | [15]
not listed: [1] | [2] | [4] | [7] | [11]
Compound NOT metabolized: all other assays above
